Experiments:
[1] = Metabolic stability assay, mouse liver microsomes; assay type: in vitro ADME; details: mouse liver microsomes 0.5 mg/mL, 1 µM compound, read-out: Liver microsomal stability (T½ /min) Mouse
Protocol: (§1) Metabolic stability assay: A warm incubation for metabolic stability was performed with a system of 150 µL of liver microsomes (final concentration 0.5 mg/mL) containing NADPH (final concentration 1 mM), 1 µM of the test compound and positive control midazolam or negative control atenolol, and the reaction was terminated with acetonitrile containing tinidazole at 0 min, 5 min, 10 min and 30 min, respectively. The reaction was vortexed for 10 min and centrifuged at 15000 rmp for 10 min, and 50 µL of supernatant was taken into the 96-well plate for sampling. The metabolic stability of the compound was calculated by measuring the relative reduction of the drugs.

[2] = test system: MiaPaca-2 cells (pancreatic cancer); assay: Proliferation test method 1 (2D, MTT), MiaPaca-2; assay type: cell-based; details: Homo sapiens, MIA PaCa-2, 2D, 5-7 days, read-out: IC50/nM proliferation inhibitory activity on MiaPaca-2 cells
Protocol: (§2) Test method 1 (2D):NCI-H358 (lung cancer) and MiaPaca-2 cells (pancreatic cancer) cells (100 µL/well, 20,000 cells/mL) were inoculated in 96-well culture plates supplemented with 10% fetal bovine serum and 1% penicillin/streptomycin sulfate, respectively.Using 0.5% dimethyl sulfoxide as a blank control, cells were treated with a solution of the compound to be tested at a starting concentration of 10 µM, tripled diluted testing solution of the compound in eight gradients were used to treat cells, and then incubated in a 5% CO2 incubator for a certain period of time (5-7 days).At the end of incubation, 10 µL of MTT stock solution (5 mg/mL) was added to each well.The culture plates were incubated at 37° C. for 4 h and then the medium was removed.Dimethyl sulfoxide (100 µL) was added to each well and then shaken sufficiently. The absorbance of the product formazanwas measured at 570 nm on the Thermo Scientific Varioskan Flash multimode reader.IC50 values were obtained by fitting dose-response data into a three-parameter nonlinear regression model using GraphPad Prism 6.0 software.

[3] = Metabolic stability assay, rat liver microsomes; assay type: in vitro ADME; details: rat liver microsomes 0.5 mg/mL, 1 µM compound, read-out: Liver microsomal stability (T½ /min) Rat
Protocol: as §1

[4] = In vivo pharmacokinetic parameter testing in mice; set-up: species or system ICR mice; details: for AUC(0-t) / clearance / half-life: male, ICR, mouse, plasma, iv(1 mg/kg); for AUC(0-t): read-out: Below the curve and AUC0-t; for clearance: read-out: Clearance rate Cl; for half-life: read-out: Half-life T½ (converted)
CYP2C8 = molecular target: T1, CYP2C8 (Homo sapiens, UniProt P10632); assay: Direct inhibition test (DI test), CYP2C8; assay type: in vitro ADME; details: human liver microsomes
T1 sequence (P10632 1-490): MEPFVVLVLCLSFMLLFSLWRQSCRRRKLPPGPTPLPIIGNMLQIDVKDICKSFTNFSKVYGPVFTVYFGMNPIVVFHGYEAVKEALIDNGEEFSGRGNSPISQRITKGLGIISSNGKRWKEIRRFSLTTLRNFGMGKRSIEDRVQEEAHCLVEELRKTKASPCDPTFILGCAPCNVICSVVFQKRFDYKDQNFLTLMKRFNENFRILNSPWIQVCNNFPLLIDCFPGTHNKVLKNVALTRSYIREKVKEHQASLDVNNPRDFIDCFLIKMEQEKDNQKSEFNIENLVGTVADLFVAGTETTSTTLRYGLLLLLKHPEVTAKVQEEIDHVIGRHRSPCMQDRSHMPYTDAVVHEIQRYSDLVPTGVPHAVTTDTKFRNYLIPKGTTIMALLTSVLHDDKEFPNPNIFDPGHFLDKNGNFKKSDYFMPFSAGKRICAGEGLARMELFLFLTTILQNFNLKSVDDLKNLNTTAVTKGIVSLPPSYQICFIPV

[5] = test system: NCI-H358 (lung cancer) cells; assay: Proliferation test method 1 (2D, MTT), NCI-H358; assay type: cell-based; details: Homo sapiens, 5-7 days, read-out: IC50 proliferation inhibitory activity against NCI-H358
Protocol: as §2

[6] = test system: transplanted tumor of MiaPaca-2, NCI-H358 tumor cells; assay: Growth inhibition of transplanted tumor in nude mice; assay type: in vivo; details: 10 mg/kg orally, after two weeks of administration
Protocol: The tumor tissues in the peak growth period were cut into 1.5 mm^3 and inoculated into the right axillary subcutis of nude mice under aseptic conditions. The subcutaneous transplanted tumors of nude mice were measured by vernier calipers for the diameter of the transplanted tumors, and the animals were randomly grouped when the average volume of the tumors reached about 130 mm^3.The example compound (injection water containing 1% Tween 80 was prepared to the desired concentration and then left to be used) was administered orally at the given dose daily for three weeks, and the solvent control group was given an equal amount of solvent. The transplanted tumor diameter was measured twice a week throughout the experiment, and the mice were weighed at the same time.The tumor volume (TV) was calculated by the formula: TV = ½×a×b^2, where a and b are the length and width, respectively.

NCI-H358 cells = assay: Proliferation test method 2 (3D, Cell Titer Glo 3D), NCI-H358; assay type: cell-based; details: Homo sapiens, NCI-H358, 96 h, read-out: IC50 cell proliferation inhibitory activity against NCI-H358
Protocol: (§3) Test method 2 (3D): The tumor cells in the logarithmic growth phase were diluted with culture solution to a certain concentration and inoculated on the 96-well plate on the ultra-low attachment surface, and the culture medium was 80 µL/well. Cells were incubated overnight at 37° C. in a humidity chamber. On the second day, a series of diluted test compounds (10 concentrations, 3 times dilution) were added to the plate, 20 µL/well, incubated in an incubator for 96h.The plates are removed and placed at room temperature and incubated with an equal volume of Cell Titer Glo®3D reagent for 1 h. The signal is detected by the En Vision™ plate reader. […] A four-parameter nonlinear regression curve was fitted to the percent inhibition for each concentration of the compound and the IC50 was calculated.

MiaPaca-2 cells = assay: Proliferation test method 2 (3D, Cell Titer Glo 3D), MiaPaca-2; assay type: cell-based; details: Homo sapiens, MIA PaCa-2, 96 h, read-out: IC50 cell proliferation inhibitory activity against MiaPaca-2
Protocol: as §3

[7] = Metabolic stability assay, human liver microsomes; assay type: in vitro ADME; details: human liver microsomes 0.5 mg/mL, 1 µM compound, read-out: Liver microsomal stability (T½ /min) human
Protocol: as §1

SMILES | half-life at 1 µM [3] | AUC compared to the comparative compound 1 ([4]; in words) | clearance rate Cl compared to the comparative compound 1 ([4]; in words) | pharmacokinetic properties in mice compared to comparative compound 1 ([4]; in words) | AUC(0-t) [4] | clearance [4] | half-life [4] | IC50 at 20 min (CYP2C8) | IC50 [5] | IC50 (NCI-H358 cells) | IC50 (MiaPaca-2 cells) | half-life at 1 µM [7] | in vivo metabolic half-life compared to the comparative compound 1 ([4]; in words) | half-life at 1 µM [1] | IC50 [2] | tumor regression [6]
C=CC(=O)N1C[C@@H]2C(=O)N(C)c3cnc4c(F)c(-c5ccc(F)c6sc(N)nc56)c(Cl)cc4c3N2C[C@H]1C (single isomer, unassigned) [Example 17-1] | > 30 min | significantly increased | significantly lower | significantly better | 3.31 ± 0.187 µM·h | 9.04 ± 0.5 mL/min/kg | 66 min | > 10000 nM |  |  |  |  |  | > 30 min | 24.8 nM | 
C=CC(=O)N1CCN(c2c(C#N)c(OC[C@@H]3CCCN3C)nc3c(F)c(-c4ccc(F)c5sc(N)nc45)c(Cl)cc23)CC1 [Example 3, 4-(4-Piperazinylacryloylpiperazin-1-yl)-7-(2-Amino-7-Fluorobenzo[d]Thiazol-4-yl)-6-Chloro-8-Fluoro-2-(((S)-1-Methylpyrrolidin-2-Yl)Methoxy)Quinoline-3-Cyano] |  | significantly increased | significantly lower | significantly better | 4.09 ± 0.373 µM·h | 6.35 ± 0.67 mL/min/kg | 390 min | > 10000 nM | < 100 nM |  |  | > 30 min | significantly longer |  |  | 
C=CC(=O)N1CCN(c2nc(OC[C@@H]3CCCN3C)nc3c(F)c(-c4ccc(F)c5sc(N)nc45)c(Cl)cc23)C[C@H]1C [Example 11, 1-((2R)-4-(7-(2-Amino-7-Fluorobenzo [d] Thiazol-4-yl) -6-Chloro-8-Fluoro-2-(((S)-1-Methylpyrrolidin-2-yl) Methoxy) Quinazolin-4-yl)-2-Methylpiperazin-1-yl) Prop-2-En-1-One] | > 30 min |  |  |  |  |  |  | > 10000 nM | < 100 nM | < 200 nM | < 200 nM | > 30 min |  |  |  | 

The next lines start with results.

half-life at 1 µM [3] | AUC compared to the comparative compound 1 ([4]; in words) | clearance rate Cl compared to the comparative compound 1 ([4]; in words) | pharmacokinetic properties in mice compared to comparative compound 1 ([4]; in words) | AUC(0-t) [4] | clearance [4] | half-life [4] | IC50 at 20 min (CYP2C8) | IC50 [5] | IC50 (NCI-H358 cells) | IC50 (MiaPaca-2 cells) | half-life at 1 µM [7] | in vivo metabolic half-life compared to the comparative compound 1 ([4]; in words) | SMILES | half-life at 1 µM [1] | IC50 [2] | tumor regression [6]
> 30 min |  |  | significantly better | 1.29 ± 0.07 µM·h | 21.6 ± 1.05 mL/min/kg | 78 min | > 10000 nM | < 100 nM |  |  |  |  | C=CC(=O)N1CCN(c2c(C#N)c(N3CC(N(C)C)C3)nc3c(F)c(-c4ccc(F)c5sc(N)nc45)c(Cl)cc23)CC1 [Example 21, 4-(4-acryloyl Piperazin-1-yl)-7-(2-Amino-7-Fluorobenzo [d] Thiazol-4-yl) -6-Chloro-2-(3-(Dimethylamino) Azetidine-1-yl)-8-Fluoroquinolin-3 -Cyano] |  |  | 
> 30 min | significantly increased | significantly lower | significantly better | 2.85 ± 0.363 µM·h | 11.5 ± 1.52 mL/min/kg | 31.2 min | > 10000 nM | < 100 nM | < 200 nM | < 200 nM |  |  | C=CC(=O)N1CCN(c2c(C#N)cnc3c(F)c(-c4ccc(F)c5sc(N)nc45)c(Cl)cc23)CC1 [Example 8] | > 30 min |  | tumor regression was achieved
